# Assay results from patent US20060252807A1, “Novel ortho-terphenyl inhibitors of p38 kinase and methods of treating inflammatory disorders” (Kalypsys, Inc., priority 2005, published 2006).
# pIC50: −log10 of the molar value.
# Target: T1, active p38 alpha enzyme (Upstate Biotechnology) (Homo sapiens, UniProt Q16539)
# T1 construct: purchased Upstate Biotechnology
# Assay: p38α biochemical assay (ATP turnover, luminescent detection, Cambrex PKlight)
# Settings: p38α kinase; Table 1 Biological Activity
# In short: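 p38α + MapkapK2 (whole protein substrate) + 1.4 uM ATP final; Tris/MOPS buffer with MgCl2, CaCl2, EGTA, EDTA, glycerol, β-ME, BSA; 2 h at 30C; luminescent detection of remaining ATP.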
# T1 sequence (Q16539 whole entry): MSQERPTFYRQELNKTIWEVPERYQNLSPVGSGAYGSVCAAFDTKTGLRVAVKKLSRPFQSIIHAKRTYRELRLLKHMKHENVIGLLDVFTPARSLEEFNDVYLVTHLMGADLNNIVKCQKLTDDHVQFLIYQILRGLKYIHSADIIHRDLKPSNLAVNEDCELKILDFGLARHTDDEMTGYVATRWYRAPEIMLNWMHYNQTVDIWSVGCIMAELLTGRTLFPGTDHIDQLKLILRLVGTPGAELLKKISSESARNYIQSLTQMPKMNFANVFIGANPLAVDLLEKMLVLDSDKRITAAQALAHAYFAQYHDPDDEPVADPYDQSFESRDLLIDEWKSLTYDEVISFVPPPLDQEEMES
row,pIC50,Structure (SMILES)
1,< 6.00,Cc1cccc(NCc2onc(-c3ccc(F)cc3)c2-c2nc(C(=O)NC(C)C)cs2)n1 [Example 1635]
2,< 6.00,Cc1cccnc1NCc1onc(-c2ccc(F)cc2)c1-c1nc(C(=O)NC(C)C)cs1 [Example 1637]
3,< 6.00,CC(C)NC(=O)c1csc(-c2c(-c3ccc(F)cc3)noc2CNc2ccccc2F)n1 [Example 1638]
4,< 6.00,CC(C)NC(=O)c1csc(-c2c(-c3ccc(F)cc3)noc2CNc2ccc(F)cc2)n1 [Example 1639]
5,< 6.00,Cc1ccc(NCc2onc(-c3ccc(F)cc3)c2-c2nc(C(=O)NC(C)C)cs2)cc1C [Example 1641]
6,< 6.00,CCc1ccccc1NCc1onc(-c2ccc(F)cc2)c1-c1nc(C(=O)NC(C)C)cs1 [Example 1642]
7,< 6.00,Cc1cc(C)cc(NCc2onc(-c3ccc(F)cc3)c2-c2nc(C(=O)NC(C)C)cs2)c1 [Example 1646]
8,< 6.00,COc1ccc(NCc2onc(-c3ccc(F)cc3)c2-c2nc(C(=O)NC(C)C)cs2)cc1 [Example 1648]
9,< 6.00,COc1ccccc1NCc1onc(-c2ccc(F)cc2)c1-c1nc(C(=O)NC(C)C)cs1 [Example 1649]
10,< 6.00,Cc1c(F)cccc1NCc1onc(-c2ccc(F)cc2)c1-c1nc(C(=O)NC(C)C)cs1 [Example 1652]
11,< 6.00,CCc1cccc(C)c1NCc1onc(-c2ccc(F)cc2)c1-c1nc(C(=O)NC(C)C)cs1 [Example 1660]
12,< 6.00,CC(C)NC(=O)c1csc(-c2c(-c3ccc(F)cc3)noc2CNc2ccc3c(c2)OCO3)n1 [Example 1662]
13,< 6.00,COc1ccc(NCc2onc(-c3ccc(F)cc3)c2-c2nc(C(=O)NC(C)C)cs2)c(C)c1 [Example 1663]
14,< 6.00,CCOc1ccccc1NCc1onc(-c2ccc(F)cc2)c1-c1nc(C(=O)NC(C)C)cs1 [Example 1665]
15,< 6.00,Cc1c(Cl)cccc1NCc1onc(-c2ccc(F)cc2)c1-c1nc(C(=O)NC(C)C)cs1 [Example 1667]
16,< 6.00,Cc1ccc(NCc2onc(-c3ccc(F)cc3)c2-c2nc(C(=O)NC(C)C)cs2)cc1Cl [Example 1668]
17,< 6.00,CC(C)NC(=O)c1csc(-c2c(-c3ccc(F)cc3)noc2CNc2ccccc2C(C)(C)C)n1 [Example 1672]
18,< 6.00,CC(=O)Nc1ccc(NCc2onc(-c3ccc(F)cc3)c2-c2nc(C(=O)NC(C)C)cs2)cc1 [Example 1675]
19,< 6.00,CC(=O)Nc1ccc(NCc2onc(-c3ccc(F)cc3)c2-c2nc(C(=O)NC(C)C)cs2)cn1 [Example 1676]
20,< 6.00,CC(C)NC(=O)c1csc(-c2c(-c3ccc(F)cc3)noc2CNc2ccccc2-n2cccc2)n1 [Example 1679]
21,< 6.00,CC(C)NC(=O)c1csc(-c2c(-c3ccc(F)cc3)noc2CNc2ccc(Cl)c(Cl)c2)n1 [Example 1682]
22,< 6.00,CC(C)NC(=O)c1csc(-c2c(-c3ccc(F)cc3)noc2CNc2cc(C(F)(F)F)ccc2F)n1 [Example 1689]
23,< 6.00,CCOc1ccc(OCC)c(NCc2onc(-c3ccc(F)cc3)c2-c2nc(C(=O)NC(C)C)cs2)c1 [Example 1691]
24,< 6.00,CC(C)NC(=O)c1csc(-c2c(-c3ccc(F)cc3)noc2CNc2cc(Cl)c(Cl)c(Cl)c2)n1 [Example 1692]
25,< 6.00,CC(C)NC(=O)c1csc(-c2c(-c3ccc(F)cc3)noc2CNc2ccccc2COc2ccccc2)n1 [Example 1694]
26,< 6.00,CC(C)NC(=O)c1csc(-c2c(-c3ccc(F)cc3)noc2CNc2cc(C(F)(F)F)ccc2C(F)(F)F)n1 [Example 1697]
27,< 6.00,Cc1nc(-c2ccc(F)cc2)c(-c2nc(C(=O)NC3CCCc4ccccc43)cs2)s1 (stereo not drawn) [Example 1701]
28,≥ 6.00,CNC(=O)c1csc(-c2sc(C)nc2-c2ccc(F)cc2)n1 [Example 1705]
29,< 6.00,Cc1nc(-c2ccc(F)cc2)c(-c2nc(C(=O)NCCN)cs2)s1 [Example 1711]

# Further lines, the compound ahead of its results:
row,Structure (SMILES),pIC50
1,Cc1ccnc(NCc2onc(-c3ccc(F)cc3)c2-c2nc(C(=O)NC(C)C)cs2)c1 [Example 1636],< 6.00
2,Cc1ccc(C)c(NCc2onc(-c3ccc(F)cc3)c2-c2nc(C(=O)NC(C)C)cs2)c1 [Example 1640],< 6.00
3,Cc1cccc(NCc2onc(-c3ccc(F)cc3)c2-c2nc(C(=O)NC(C)C)cs2)c1C [Example 1644],< 6.00
4,Cc1ccc(NCc2onc(-c3ccc(F)cc3)c2-c2nc(C(=O)NC(C)C)cs2)c(C)c1 [Example 1645],< 6.00
5,COc1cccc(NCc2onc(-c3ccc(F)cc3)c2-c2nc(C(=O)NC(C)C)cs2)c1 [Example 1647],< 6.00
6,COc1ccncc1NCc1onc(-c2ccc(F)cc2)c1-c1nc(C(=O)NC(C)C)cs1 [Example 1650],< 6.00
7,Cc1ccc(NCc2onc(-c3ccc(F)cc3)c2-c2nc(C(=O)NC(C)C)cs2)cc1F [Example 1651],< 6.00
8,CC(C)NC(=O)c1csc(-c2c(-c3ccc(F)cc3)noc2CNc2cc(F)cc(F)c2)n1 [Example 1653],< 6.00
9,CC(C)NC(=O)c1csc(-c2c(-c3ccc(F)cc3)noc2CNc2ccc(F)cc2F)n1 [Example 1654],< 6.00
10,CC(C)NC(=O)c1csc(-c2c(-c3ccc(F)cc3)noc2CNc2ccc3c(c2)CCC3)n1 [Example 1656],< 6.00
11,CC(C)NC(=O)c1csc(-c2c(-c3ccc(F)cc3)noc2CNc2ccccc2C(C)C)n1 [Example 1657],< 6.00
12,CC(=O)c1cccc(NCc2onc(-c3ccc(F)cc3)c2-c2nc(C(=O)NC(C)C)cs2)c1 [Example 1658],≥ 6.00
13,CC(=O)c1ccc(NCc2onc(-c3ccc(F)cc3)c2-c2nc(C(=O)NC(C)C)cs2)cc1 [Example 1659],< 6.00
14,Cc1cc(C)c(NCc2onc(-c3ccc(F)cc3)c2-c2nc(C(=O)NC(C)C)cs2)c(C)c1 [Example 1661],< 6.00
15,CCOc1cccc(NCc2onc(-c3ccc(F)cc3)c2-c2nc(C(=O)NC(C)C)cs2)c1 [Example 1664],< 6.00
16,CSc1ccccc1NCc1onc(-c2ccc(F)cc2)c1-c1nc(C(=O)NC(C)C)cs1 [Example 1666],< 6.00
17,CC(C)NC(=O)c1csc(-c2c(-c3ccc(F)cc3)noc2CNc2cnc3ccccc3c2)n1 [Example 1669],< 6.00
18,CC(C)NC(=O)c1csc(-c2c(-c3ccc(F)cc3)noc2CNc2cc(F)c(F)cc2F)n1 [Example 1670],< 6.00
19,CC(C)NC(=O)c1csc(-c2c(-c3ccc(F)cc3)noc2CNC2CCCc3ccccc32)n1 (stereo not drawn) [Example 1671],< 6.00
20,Cc1cccc(C(C)C)c1NCc1onc(-c2ccc(F)cc2)c1-c1nc(C(=O)NC(C)C)cs1 [Example 1673],< 6.00
21,CC(C)NC(=O)c1csc(-c2c(-c3ccc(F)cc3)noc2CNc2ccc3ncsc3c2)n1 [Example 1674],< 6.00
22,CC(C)NC(=O)c1csc(-c2c(-c3ccc(F)cc3)noc2CNc2ccc3c(c2)OCCO3)n1 [Example 1677],< 6.00
23,CC(C)NC(=O)c1csc(-c2c(-c3ccc(F)cc3)noc2CNc2ccc(C(F)(F)F)cc2)n1 [Example 1680],< 6.00

row,Structure (SMILES),pIC50
1,CC(C)NC(=O)c1csc(-c2c(-c3ccc(F)cc3)noc2CNc2cccc(C(F)(F)F)c2)n1 [Example 1681],< 6.00
2,Cc1cccc(C(C)(C)C)c1NCc1onc(-c2ccc(F)cc2)c1-c1nc(C(=O)NC(C)C)cs1 [Example 1683],< 6.00
3,CC(C)NC(=O)c1csc(-c2c(-c3ccc(F)cc3)noc2CNc2ccc(N(C)C)cc2)n1 [Example 1684],< 6.00
4,CC(C)NC(=O)c1csc(-c2c(-c3ccc(F)cc3)noc2CNc2ccccc2-c2ccccc2)n1 [Example 1685],< 6.00
5,CC(C)NC(=O)c1csc(-c2c(-c3ccc(F)cc3)noc2CNc2ccc(OC(F)(F)F)cc2)n1 [Example 1686],< 6.00
6,CC(C)NC(=O)c1csc(-c2c(-c3ccc(F)cc3)noc2CNc2c(C(C)C)cccc2C(C)C)n1 [Example 1687],< 6.00
7,CC(C)NC(=O)c1csc(-c2c(-c3ccc(F)cc3)noc2CNc2ccc(F)cc2C(F)(F)F)n1 [Example 1688],< 6.00
8,CC(C)NC(=O)c1csc(-c2c(-c3ccc(F)cc3)noc2CNc2ccc(F)c(C(F)(F)F)c2)n1 [Example 1690],< 6.00
9,CC(C)NC(=O)c1csc(-c2c(-c3ccc(F)cc3)noc2CNc2ccccc2C(=O)c2ccccc2)n1 [Example 1693],< 6.00
10,COc1ccc(-c2ccccc2)cc1NCc1onc(-c2ccc(F)cc2)c1-c1nc(C(=O)NC(C)C)cs1 [Example 1695],≥ 6.00
11,CC(C)NC(=O)c1csc(-c2c(-c3ccc(F)cc3)noc2CNc2ncccc2OCc2ccccc2)n1 [Example 1696],< 6.00
12,CC(C)NC(=O)c1csc(-c2c(-c3ccc(F)cc3)noc2CNc2cc(C(F)(F)F)cc(C(F)(F)F)c2)n1 [Example 1698],< 6.00
13,CC(C)NC(=O)c1csc(-c2c(-c3ccc(F)cc3)noc2CNc2ccc(C(F)(F)F)cc2C(F)(F)F)n1 [Example 1699],< 6.00
14,CC(C)NC(=O)c1csc(-c2c(-c3ccc(F)cc3)noc2CBr)n1 [Example 1700],< 6.00
15,COc1ccc(NC(=O)c2csc(-c3sc(C)nc3-c3ccc(F)cc3)n2)cc1OC [Example 1702],≥ 6.00
16,Cc1nc(-c2ccc(F)cc2)c(-c2nc(C(=O)O)cs2)s1 [Example 1703],< 6.00
17,Cc1nc(-c2ccc(F)cc2)c(-c2nc(C(=O)N(CCC#N)Cc3ccccc3)cs2)s1 [Example 1704],< 6.00
18,CCNC(=O)c1csc(-c2sc(C)nc2-c2ccc(F)cc2)n1 [Example 1706],≥ 6.00
19,C#CCNC(=O)c1csc(-c2sc(C)nc2-c2ccc(F)cc2)n1 [Example 1707],≥ 6.00
20,Cc1nc(-c2ccc(F)cc2)c(-c2nc(C(=O)NCC#N)cs2)s1 [Example 1708],≥ 6.00
21,Cc1nc(-c2ccc(F)cc2)c(-c2nc(C(=O)NC3CC3)cs2)s1 [Example 1709],< 6.00
22,CCCNC(=O)c1csc(-c2sc(C)nc2-c2ccc(F)cc2)n1 [Example 1710],< 6.00
23,Cc1nc(-c2ccc(F)cc2)c(-c2nc(C(=O)NCCO)cs2)s1 [Example 1712],≥ 6.00
